According to ChEMBL document CHEMBL3091421, “Discovery of benzo[d]imidazo[5,1-b]thiazole as a new class of phosphodiesterase 10A inhibitors” (Bioorg Med Chem Lett, 2013):

Legend:
Rattus norvegicus [1] = assay: Antipsychotic activity in Sprague-Dawley rat psychosis model assessed as inhibition of MK-801-induced ataxia at 1 mg/kg, ip administered 5 mins prior to MK-801-challenge measured after 15 mins up to 1 hr relative to vehicle-treated control; assay type: functional; conditions: route intraperitoneal
Rattus norvegicus [2] = assay: Antipsychotic activity in Sprague-Dawley rat assessed as reduction in quipazine-induced head-twitches at 1 mg/kg, ip administered 15 mins prior to quipazine-challenge measured immediately relative to vehicle-treated control; assay type: functional; parameters: scale not given: the % may be the effect or the level left; conditions: route intraperitoneal
[3] = AUC (0 to 24 hrs) in Sprague-Dawley rat at 10 mg/kg, po by LC-MS/MS analysis; assay type: ADME, organism-based; parameters: time < 24 hr, dose 10 mg/kg, route oral; conditions: plasma
Rattus norvegicus [4] = assay: Antipsychotic activity in Sprague-Dawley rat psychosis model assessed as inhibition of MK-801-induced locomotion at 10 mg/kg, ip administered 5 mins prior to MK-801-challenge measured after 15 mins up to 1 hr relative to vehicle-treated control; assay type: functional; conditions: route intraperitoneal
[5] = target: Dual 3',5'-cyclic-AMP and -GMP phosphodiesterase 11A (Homo sapiens) (UniProt Q9HCR9); assay: Inhibition of PDE11A (unknown origin) using [3H]-cAMP as substrate at 10 uM after 30 mins by radiometric assay
Chain of Dual 3',5'-cyclic-AMP and -GMP phosphodiesterase 11A (Homo sapiens) (Q9HCR9 whole entry, looked up): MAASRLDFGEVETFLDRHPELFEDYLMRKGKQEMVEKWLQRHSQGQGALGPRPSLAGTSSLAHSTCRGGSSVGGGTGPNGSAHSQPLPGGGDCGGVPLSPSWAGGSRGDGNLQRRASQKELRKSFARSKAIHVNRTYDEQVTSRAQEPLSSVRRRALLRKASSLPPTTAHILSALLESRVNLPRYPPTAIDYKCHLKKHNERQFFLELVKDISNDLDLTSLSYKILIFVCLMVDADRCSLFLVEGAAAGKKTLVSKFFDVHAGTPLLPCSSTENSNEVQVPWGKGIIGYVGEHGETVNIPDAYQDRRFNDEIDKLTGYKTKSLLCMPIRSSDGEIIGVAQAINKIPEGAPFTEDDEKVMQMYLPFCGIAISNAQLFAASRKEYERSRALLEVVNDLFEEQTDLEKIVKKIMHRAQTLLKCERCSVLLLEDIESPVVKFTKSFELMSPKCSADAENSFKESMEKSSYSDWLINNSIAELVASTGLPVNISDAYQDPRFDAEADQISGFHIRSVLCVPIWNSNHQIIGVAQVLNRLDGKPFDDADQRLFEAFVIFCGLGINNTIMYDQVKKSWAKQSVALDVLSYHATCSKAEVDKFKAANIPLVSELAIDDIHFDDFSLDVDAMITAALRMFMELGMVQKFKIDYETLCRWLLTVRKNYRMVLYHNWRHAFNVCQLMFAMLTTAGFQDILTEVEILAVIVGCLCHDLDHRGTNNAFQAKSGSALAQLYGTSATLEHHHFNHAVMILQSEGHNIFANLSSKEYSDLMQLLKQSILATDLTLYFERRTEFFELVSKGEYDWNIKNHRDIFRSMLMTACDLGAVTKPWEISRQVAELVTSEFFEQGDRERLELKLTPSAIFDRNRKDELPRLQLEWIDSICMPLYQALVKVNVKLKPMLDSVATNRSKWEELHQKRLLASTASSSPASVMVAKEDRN

[6] = target: cGMP-dependent 3',5'-cyclic phosphodiesterase (Homo sapiens) (UniProt O00408); assay: Inhibition of PDE2A (unknown origin) using cAMP as substrate at 10 uM after 30 mins by HTRF method
Chain of cGMP-dependent 3',5'-cyclic phosphodiesterase (Homo sapiens) (O00408 whole entry): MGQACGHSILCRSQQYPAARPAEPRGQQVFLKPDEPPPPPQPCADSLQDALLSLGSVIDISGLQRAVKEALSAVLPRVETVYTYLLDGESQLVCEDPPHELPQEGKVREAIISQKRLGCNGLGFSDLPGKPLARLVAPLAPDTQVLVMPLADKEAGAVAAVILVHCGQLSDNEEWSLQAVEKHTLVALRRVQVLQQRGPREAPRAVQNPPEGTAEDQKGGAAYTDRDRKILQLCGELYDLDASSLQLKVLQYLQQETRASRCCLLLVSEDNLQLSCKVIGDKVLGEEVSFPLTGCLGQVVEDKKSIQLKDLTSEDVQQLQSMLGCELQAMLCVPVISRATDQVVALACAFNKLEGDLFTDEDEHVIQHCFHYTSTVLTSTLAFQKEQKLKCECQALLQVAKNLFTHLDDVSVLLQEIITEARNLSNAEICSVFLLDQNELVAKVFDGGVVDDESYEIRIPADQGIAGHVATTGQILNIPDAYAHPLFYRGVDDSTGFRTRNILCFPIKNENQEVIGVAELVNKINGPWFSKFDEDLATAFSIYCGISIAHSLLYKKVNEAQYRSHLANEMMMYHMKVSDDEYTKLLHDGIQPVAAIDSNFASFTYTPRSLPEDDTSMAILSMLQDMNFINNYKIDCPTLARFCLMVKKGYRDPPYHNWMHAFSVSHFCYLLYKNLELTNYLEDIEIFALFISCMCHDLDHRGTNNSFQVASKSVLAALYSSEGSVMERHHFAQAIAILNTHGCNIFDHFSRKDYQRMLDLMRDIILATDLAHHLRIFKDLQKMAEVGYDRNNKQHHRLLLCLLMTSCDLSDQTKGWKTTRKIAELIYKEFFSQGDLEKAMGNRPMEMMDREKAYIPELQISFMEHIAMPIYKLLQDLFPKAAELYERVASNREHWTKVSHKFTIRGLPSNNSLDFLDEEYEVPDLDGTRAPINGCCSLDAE

Rattus norvegicus [7] = assay: Antipsychotic activity in Sprague-Dawley rat assessed as reduction in quipazine-induced head-twitches at 6 mg/kg, ip administered 15 mins prior to quipazine-challenge measured immediately relative to vehicle-treated control; assay type: functional; parameters: scale not given: the % may be the effect or the level left; conditions: route intraperitoneal
Rattus norvegicus [8] = assay: Antipsychotic activity in Sprague-Dawley rat assessed as reduction in quipazine-induced head-twitches at 0.3 mg/kg, ip administered 15 mins prior to quipazine-challenge measured immediately relative to vehicle-treated control; assay type: functional; parameters: scale not given: the % may be the effect or the level left; conditions: route intraperitoneal
[9] = target: cGMP-inhibited 3',5'-cyclic phosphodiesterase 3A (Homo sapiens) (UniProt Q14432); assay: Inhibition of PDE3A (unknown origin) using cAMP as substrate at 10 uM after 30 mins by HTRF method
Chain of cGMP-inhibited 3',5'-cyclic phosphodiesterase 3A (Homo sapiens) (Q14432 whole entry): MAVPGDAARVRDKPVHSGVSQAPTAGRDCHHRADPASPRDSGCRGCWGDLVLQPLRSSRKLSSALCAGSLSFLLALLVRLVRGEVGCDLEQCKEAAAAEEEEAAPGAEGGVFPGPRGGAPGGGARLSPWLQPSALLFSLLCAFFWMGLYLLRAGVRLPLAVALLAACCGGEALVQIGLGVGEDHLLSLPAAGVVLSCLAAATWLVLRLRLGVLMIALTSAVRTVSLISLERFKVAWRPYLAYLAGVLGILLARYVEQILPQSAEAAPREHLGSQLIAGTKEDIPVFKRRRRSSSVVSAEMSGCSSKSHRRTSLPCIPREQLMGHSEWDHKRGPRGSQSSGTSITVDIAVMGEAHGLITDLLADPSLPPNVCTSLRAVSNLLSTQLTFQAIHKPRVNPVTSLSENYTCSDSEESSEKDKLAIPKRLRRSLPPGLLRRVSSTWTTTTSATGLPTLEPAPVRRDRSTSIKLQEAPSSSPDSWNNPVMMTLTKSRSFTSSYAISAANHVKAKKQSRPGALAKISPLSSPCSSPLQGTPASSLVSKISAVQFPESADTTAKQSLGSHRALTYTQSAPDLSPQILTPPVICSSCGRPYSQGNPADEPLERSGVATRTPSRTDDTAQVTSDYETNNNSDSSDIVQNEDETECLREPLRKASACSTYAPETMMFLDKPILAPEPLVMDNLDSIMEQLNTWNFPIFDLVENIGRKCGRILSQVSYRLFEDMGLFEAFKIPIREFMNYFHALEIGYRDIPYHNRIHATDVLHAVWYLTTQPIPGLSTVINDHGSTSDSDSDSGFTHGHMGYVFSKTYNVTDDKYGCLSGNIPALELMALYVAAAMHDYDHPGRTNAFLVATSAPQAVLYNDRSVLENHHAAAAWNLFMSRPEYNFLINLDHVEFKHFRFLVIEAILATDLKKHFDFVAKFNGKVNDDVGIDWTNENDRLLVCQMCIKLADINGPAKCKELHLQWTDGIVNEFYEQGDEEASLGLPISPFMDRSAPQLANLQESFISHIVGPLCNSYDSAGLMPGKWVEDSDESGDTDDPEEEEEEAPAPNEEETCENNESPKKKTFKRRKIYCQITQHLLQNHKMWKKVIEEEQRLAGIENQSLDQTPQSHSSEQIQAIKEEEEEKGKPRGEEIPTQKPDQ

Rattus norvegicus [10] = assay: Antipsychotic activity in Sprague-Dawley rat psychosis model assessed as inhibition of MK-801-induced stereotypy at 10 mg/kg, ip administered 5 mins prior to MK-801-challenge measured after 15 mins up to 1 hr relative to vehicle-treated control; assay type: functional; conditions: route intraperitoneal
Rattus norvegicus [11] = assay: Antipsychotic activity in Sprague-Dawley rat assessed as reduction in quipazine-induced head-twitches at 3 mg/kg, ip administered 15 mins prior to quipazine-challenge measured immediately relative to vehicle-treated control; assay type: functional; parameters: scale not given: the % may be the effect or the level left; conditions: route intraperitoneal
Homo sapiens [12] = species: Homo sapiens; assay: Selectivity ratio of IC50 for PDE4D (unknown origin) to IC50 for human recombinant PDE10A
Rattus norvegicus [13] = assay: Antipsychotic activity in ip dosed Sprague-Dawley rat psychosis model assessed as inhibition of MK-801-induced stereotypy administered 5 mins prior to MK-801-challenge measured after 15 mins up to 1 hr relative to vehicle-treated control; assay type: functional, organism-based
Rattus norvegicus [14] = assay: Antipsychotic activity in Sprague-Dawley rat psychosis model assessed as inhibition of MK-801-induced stereotypy at 6 mg/kg, ip administered 5 mins prior to MK-801-challenge measured after 15 mins up to 1 hr relative to vehicle-treated control; assay type: functional; conditions: route intraperitoneal
[15] = target: Dual specificity calcium/calmodulin-dependent 3',5'-cyclic nucleotide phosphodiesterase 1A (Homo sapiens) (UniProt P54750); assay: Inhibition of PDE1A (unknown origin) at 10 uM
Chain of Dual specificity calcium/calmodulin-dependent 3',5'-cyclic nucleotide phosphodiesterase 1A (Homo sapiens) (P54750 whole entry): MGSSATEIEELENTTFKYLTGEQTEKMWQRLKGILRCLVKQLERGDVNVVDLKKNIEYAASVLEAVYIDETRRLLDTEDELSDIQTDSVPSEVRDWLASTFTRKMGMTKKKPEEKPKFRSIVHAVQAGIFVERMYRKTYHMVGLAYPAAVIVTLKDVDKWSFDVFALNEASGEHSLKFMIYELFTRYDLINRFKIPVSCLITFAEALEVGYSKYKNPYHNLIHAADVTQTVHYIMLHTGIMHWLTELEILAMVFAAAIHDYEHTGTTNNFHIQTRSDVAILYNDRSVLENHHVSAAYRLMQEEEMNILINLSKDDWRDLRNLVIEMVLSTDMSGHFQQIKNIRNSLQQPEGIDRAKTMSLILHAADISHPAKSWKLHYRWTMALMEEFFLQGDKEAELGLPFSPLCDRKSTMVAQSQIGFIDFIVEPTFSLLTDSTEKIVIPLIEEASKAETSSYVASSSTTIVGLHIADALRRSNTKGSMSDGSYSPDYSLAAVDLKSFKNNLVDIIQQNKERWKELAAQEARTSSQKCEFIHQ

Rattus norvegicus [16] = assay: Antipsychotic activity in Sprague-Dawley rat psychosis model assessed as inhibition of MK-801-induced stereotypy at 1 mg/kg, ip administered 5 mins prior to MK-801-challenge measured after 15 mins up to 1 hr relative to vehicle-treated control; assay type: functional; conditions: route intraperitoneal
Homo sapiens [17] = species: Homo sapiens; assay: Selectivity ratio of IC50 for PDE7A1 (unknown origin) to IC50 for human recombinant PDE10A
[18] = target: cGMP-specific 3',5'-cyclic phosphodiesterase (Homo sapiens) (UniProt O76074); assay: Inhibition of PDE5A (unknown origin) using [3H]-cGMP as substrate at 10 uM after 30 mins by radiometric assay
Rattus norvegicus [19] = assay: Antipsychotic activity in Sprague-Dawley rat psychosis model assessed as inhibition of MK-801-induced ataxia at 3 mg/kg, ip administered 5 mins prior to MK-801-challenge measured after 15 mins up to 1 hr relative to vehicle-treated control; assay type: functional; conditions: route intraperitoneal
Rattus norvegicus [20] = assay: Antipsychotic activity in ip dosed Sprague-Dawley rat conditioned avoidance response model assessed as reduction in avoidance after 15 mins relative to vehicle-treated control; assay type: functional
Homo sapiens [21] = species: Homo sapiens; assay: Selectivity ratio of IC50 for PDE1A (unknown origin) to IC50 for human recombinant PDE10A
[22] = Metabolic stability in rat liver microsomes assessed as compound remaining after 60 mins; assay type: ADME; conditions: read-out: Stability
[23] = Plasma concentration in Sprague-Dawley rat at 10 mg/kg, po after 30 mins; assay type: ADME, organism-based; parameters: dose 10 mg/kg, route oral
[24] = Cmax in Sprague-Dawley rat at 10 mg/kg, po by LC-MS/MS analysis; assay type: ADME, organism-based; parameters: dose 10 mg/kg, route oral; conditions: in vivo
Homo sapiens [25] = species: Homo sapiens; assay: Selectivity ratio of IC50 for PDE5A (unknown origin) to IC50 for human recombinant PDE10A
Rattus norvegicus [26] = assay: Antipsychotic activity in Sprague-Dawley rat psychosis model assessed as inhibition of MK-801-induced hyperlocomotion at 10 mg/kg, ip administered 5 mins prior to MK-801-challenge measured after 15 mins up to 1 hr; assay type: functional; conditions: route intraperitoneal

AUC(0-t) at 24 h [3]: 2830 ng·h/mL | inhibition [5]: 19.2% | inhibition [6]: 60.8% | inhibition [9]: 11.3% | Ratio IC50 (Homo sapiens [12]): > 500 | inhibition [15]: 62.4% | Ratio IC50 (Homo sapiens [17]): > 500 | inhibition [18]: 45.5% | Ratio IC50 (Homo sapiens [21]): > 500 | remaining at 1 h [22]: 65% | concentration at 0.5 h [23]: 370 ng/mL | Cmax [24]: 720 ng/mL | Ratio IC50 (Homo sapiens [25]): > 500
Structure (SMILES): Cc1nc(C2CCOCC2)n2c1sc1cc(OCc3ccc4ccccc4n3)ccc12
inhibition in vivo at 1 mg/kg (Rattus norvegicus [1]): 10% | Activity (Rattus norvegicus [2]): 47% | inhibition in vivo at 10 mg/kg (Rattus norvegicus [4]): 83% | Activity (Rattus norvegicus [7]): 76% | Activity (Rattus norvegicus [8]): 25% | inhibition in vivo at 10 mg/kg (Rattus norvegicus [10]): 66% | Activity (Rattus norvegicus [11]): 67% | inhibition (Rattus norvegicus [13]): Dose-dependent effect | inhibition in vivo at 6 mg/kg (Rattus norvegicus [14]): 69% | inhibition in vivo at 1 mg/kg (Rattus norvegicus [16]): 27% | inhibition in vivo at 3 mg/kg (Rattus norvegicus [19]): 56% | Activity (Rattus norvegicus [20]): Dose-dependent effect | ED50 (Rattus norvegicus [20]; 0.25 h): 1.6 mg/kg | inhibition in vivo at 10 mg/kg (Rattus norvegicus [26]): 92%
